Test results: ChEMBL document CHEMBL5678796, “A highly potent and selective farnesyltransferase inhibitor ABT-100 in preclinical studies” (Anticancer Drugs, 2005)

Experiments:
[1] = Half-life in dog at 2.5 mg/kg, iv; assay type: ADME, organism-based, Canis lupus familiaris; conditions: in vivo
[2] = Ratio of EC50 for inhibition of FTase in human DLD-1 cells expressing moderate level of P-gp1 using Ras as substrate assessed as inhibition of substrate post-translation processing in presence of 20% human serum to EC50 for inhibition of FTase in human DLD-1 cells expressing moderate level of P-gp1 using Ras as substrate assessed as inhibition of substrate post-translation processing in presence …; conditions: condition cancer
[3] = Inhibition of recombinant bovine GGTase I incubated for 30 min sin presence of [3H]FPP by SPA based Topcount scintillation plate reader analysis; parameters: species or system Bos taurus
[4] = Ratio of EC50 for inhibition of FTase in human HCT-116 cells expressing low level of P-gp1 using Ras as substrate assessed as inhibition of substrate post-translation processing in presence of 20% human serum to EC50 for inhibition of FTase in human HCT-116 cells expressing low level of P-gp1 using Ras as substrate assessed as inhibition of substrate post-translation processing in presence of 10% …; conditions: condition cancer
[5] = Inhibition of FTase in human HCT-15 cells expressing high level of P-gp1 using Ras as substrate assessed as inhibition of substrate post-translation processing in presence of 10% FBS by immunoblot analysis; assay type: cell-based
HCT-116 [6] = assay: Inhibition of VEGF mRNA expression in human HCT-116 cells incubated for 72 hrs by qRT-PCR analysis; assay type: functional, cell-based; conditions: dose 1-30 µmol/L
[7] = Cmax in rat at 25 mg/kg, po; assay type: ADME, organism-based; conditions: in vivo
HCT-116 [8] = assay: Inhibition of VEGF secretion in human HCT-116 cells incubated for 72 hrs by ELISA; assay type: functional, cell-based; conditions: dose 0.1-3 µmol/L
HCT-116 [9] = assay: Antitumor activity against human HCT-116 cells xenografted in nu/nu CD1 mouse assessed as increase in life span at 50 mg/kg, sc preinoculated with cells for 14 days followed by once daily compound administration for 21 days and measured on day 40 relative to vehicle in time to 1 cm^3 tumor; assay type: functional; conditions: HCT-116, 960 h, time 40 day
[10] = Oral bioavailability in rat at 5 mg/kg; assay type: ADME, organism-based; conditions: in vivo
[11] = AUC in rat at 25 mg/kg, po; assay type: ADME, organism-based; conditions: in vivo
Mus musculus [12] = assay: Antiangiogenic activity in human recombinant VEGF-stimulated CF1 mouse corneal model assessed as inhibition of new blood growth area at 100 mg/kg, sc prestimulated with VEGF followed by compound administration and measured on day 7 by slit lamp biomicroscopic analysis relative to control; assay type: functional; conditions: CF1, 168 h, time 7 day
[13] = Inhibition of FTase in human DLD-1 cells expressing moderate level of P-gp1 using Ras as substrate assessed as inhibition of substrate post-translation processing in presence of 10% human serum by immunoblot analysis; assay type: cell-based
[14] = Volume of distribution in dog at 2.5 mg/kg, iv; assay type: ADME, organism-based, Canis lupus familiaris; conditions: in vivo
[15] = Half-life in dog at 2.5 mg/kg, po; assay type: ADME, organism-based, Canis lupus familiaris; conditions: in vivo
[16] = Selectivity index, ratio of IC50 for inhibition of bovine GGTase 1 to IC50 for inhibition of recombinant human FTase
HCT-116 [17] = assay: Antitumor activity against human HCT-116 cells xenografted in nu/nu CD1 mouse assessed as tumor volume at 100 mg/kg, sc preinoculated with cells for 5 days followed by once every 2 days compound administration for 11 times and measured on day 22 (reference value: 1557 +/- 370 mm^3); assay type: functional; conditions: time 22 day
[18] = AUC in rat at 5 mg/kg, po; assay type: ADME, organism-based; conditions: in vivo
HCT-116 [19] = assay: Antitumor activity against human HCT-116 cells xenografted in nu/nu CD1 mouse assessed as tumor volume at 50 mg/kg, sc preinoculated with cells for 14 days followed by once daily compound administration for 21 days and measured on day 40 (reference value: 2973 +/- 593 mm^3); assay type: functional; conditions: time 40 day
[20] = Half-life in rat at 5 mg/kg, iv; assay type: ADME, organism-based; conditions: in vivo
[21] = Inhibition of recombinant human FTase incubated for 30 mins in presence of [3H]FPP by SPA based Topcount scintillation plate reader analysis
HCT-116 [22] = assay: Antitumor activity against human HCT-116 cells xenografted in nu/nu CD1 mouse assessed as reduction in tumor volume by measuring test to control ratio at 50 mg/kg, sc preinoculated with cells for 14 days followed by once daily compound administration for 21 days and measured on day 40; assay type: functional; conditions: time 40 day
HCT-116 [23] = assay: Antitumor activity against human HCT-116 cells xenografted in nu/nu CD1 mouse assessed as increase in life span at 12.5 mg/kg, sc preinoculated with cells for 5 days followed by once daily compound administration for 21 days and measured on day 25 relative to vehicle in time to 1 cm^3 tumor; assay type: functional; conditions: HCT-116, 600 h, time 25 day
HCT-116 [24] = assay: Antitumor activity against human HCT-116 cells xenografted in nu/nu CD1 mouse assessed as increase in life span at 100 mg/kg, sc preinoculated with cells for 5 days followed by once every 2 days compound administration for 11 times and measured on day 22 relative to vehicle in time to 1 cm3 tumor; assay type: functional; conditions: HCT-116, 528 h, time 22 day
Mus musculus [25] = assay: Antiangiogenic activity in human recombinant VEGF-stimulated CF1 mouse corneal model assessed as inhibition of new blood growth area at 50 mg/kg, sc prestimulated with VEGF followed by compound administration and measured on day 7 by slit lamp biomicroscopic analysis relative to control; assay type: functional; conditions: CF1, 168 h, time 7 day
HCT-116 [26] = assay: Antitumor activity against human HCT-116 cells xenografted in nu/nu CD1 mouse assessed as reduction in tumor volume by measuring tumor to control ratio at 12.5 mg/kg, sc preinoculated with cells for 5 days followed by once daily compound administration for 21 days and measured on day 25; assay type: functional; conditions: time 25 day
HCT-116 [27] = assay: Antitumor activity against human HCT-116 cells xenografted in nu/nu CD1 mouse assessed as reduction in tumor volume by measuring test to control ratio at 50 mg/kg, sc preinoculated with cells for 5 days followed by once every 2 days compound administration for 11 times and measured on day 22; assay type: functional; conditions: time 22 day
HCT-116 [28] = assay: Antitumor activity against human HCT-116 cells xenografted in nu/nu CD1 mouse assessed as tumor volume at 50 mg/kg, sc preinoculated with cells for 5 days followed by once every 2 days compound administration for 11 times and measured on day 22 (reference value: 1557 +/- 370 mm^3); assay type: functional; conditions: time 22 day
[29] = AUC in dog at 2.5 mg/kg, iv; assay type: ADME, organism-based, Canis lupus familiaris; conditions: in vivo

Cn1cncc1[C@](O)(COc1ccc(C#N)cc1-c1ccc(OC(F)(F)F)cc1)c1ccc(C#N)cc1 [ABT-100]
half-life [1]: 6.8 h
Ratio EC50 [2]: 1.5
IC50 [3]: > 10000 nM
Ratio EC50 [4]: 1.5
EC50 [5]: 0.2 nM
inhibition (HCT-116 [6]): Dose-Dependent Effect
Cmax [7]: 740 ng/mL
inhibition (HCT-116 [8]): Dose-Dependent Effect
ILS at 50 mg/kg (HCT-116 [9]): 52%
bioavailability [10]: 15.1%
AUC [11]: 4620 ng·h/mL
inhibition in vivo at 100 mg/kg (Mus musculus [12]): 39%
EC50 [13]: 0.4 nM
Vd [14]: 3.3 L/kg
half-life [15]: 5.9 h
Ratio IC50 [16]: > 100000
Activity (HCT-116 [17]): 691 mm3
AUC [18]: 450 ng·h/mL
Activity (HCT-116 [19]): 1530 mm3
half-life [20]: 2.3 h
IC50 [21]: 0.05 nM
T/C (HCT-116 [22]): 45%
ILS at 12.5 mg/kg (HCT-116 [23]): 61%
ILS at 100 mg/kg (HCT-116 [24]): 32%
inhibition in vivo at 50 mg/kg (Mus musculus [25]): 25%
T/C (HCT-116 [26]): 39%
T/C (HCT-116 [27]): 65%
Activity (HCT-116 [28]): 873 mm3
AUC [29]: 7700 ng·h/mL
